Where two headings read alike, the source gives them in different places.
Legend:
[1] = test system: Rhizoctonia solani AG-1; experiment: Fungicidal activity against Rice Sheath Blight (RSB) disease; conditions: for RSB (Fungicidal Activities, C.V.): Rice Sheath Blight
[2] = test system: Erysiphae graminis; experiment: Fungicidal activity against Barley Powdery Mildew (BPM) disease; type: in vivo; conditions: for BPM (Fungicidal Activities, C.V.): Barley Powdery Mildew
[3] = test system: Puccinia recondita; experiment: Fungicidal activity against Wheat Leaf Rust (WLR) disease; type: in vivo; conditions: for WLR (Fungicidal Activities, C.V.): Wheat Leaf Rust
[4] = test system: Botrytis cinerae; experiment: Fungicidal activity against Cucumber Gray Mold Rot (CGM) disease; type: in vivo; conditions: for CGM (Fungicidal Activities, C.V.): Cucumber Gray Mold Rot, concentration 50 ppm
[5] = test system: Pyricularia oryzae Carvara KA301; type: in vivo; conditions: for RCV (Fungicidal Activities, C.V.): Rice Blast
[6] = test system: Phytophthora infestans; type: in vivo; conditions: for TLB (Fungicidal Activities, C.V.): Tomato Late Blight, concentration 50 ppm

Row | Structure (SMILES) | RSB (Fungicidal Activities, C.V.) ([1]; concentration 50 ppm) | BPM (Fungicidal Activities, C.V.) ([2]; concentration 2 ppm) | BPM (Fungicidal Activities, C.V.) ([2]; concentration 10 ppm) | BPM (Fungicidal Activities, C.V.) ([2]; concentration 50 ppm) | WLR (Fungicidal Activities, C.V.) ([3]; concentration 2 ppm) | WLR (Fungicidal Activities, C.V.) ([3]; concentration 10 ppm) | WLR (Fungicidal Activities, C.V.) ([3]; concentration 50 ppm) | CGM (Fungicidal Activities, C.V.) [4] | RCV (Fungicidal Activities, C.V.) ([5]; concentration 2 ppm) | RCV (Fungicidal Activities, C.V.) ([5]; concentration 10 ppm) | RCV (Fungicidal Activities, C.V.) ([5]; concentration 50 ppm) | TLB (Fungicidal Activities, C.V.) [6] | other results
1 | COC=C(C(=O)OC)c1ccccc1CON=C(C)c1cccc(OC(F)=C(c2ccc(C)c(C)c2)C(F)(F)F)c1 [Compound 153] | 55% | 83% | 99% | 100% | 91% | 100% | 100% | 20% | 0% | 25% | 86% | 13% | 
2 | COC=C(C(=O)OC)c1ccccc1CON=C(C)c1cccc(OC(F)=C(c2cc(C)cc(C)c2)C(F)(F)F)c1 [Compound 154] | 90% | 68% | 98% | 100% | 73% | 96% | 98% | 58% |  |  | 16% | 12% | RSB (Fungicidal Activities, C.V.) ([1]; concentration 2 ppm): 25%; RSB (Fungicidal Activities, C.V.) ([1]; concentration 10 ppm): 35%
3 | CCc1ccc(C(=C(F)Oc2cccc(C(C)=NOCc3ccccc3C(=COC)C(=O)OC)c2)C(F)(F)F)cc1 [Compound 155] | 60% | 95% | 99% | 100% | 83% | 99% | 100% | 52% |  |  | 80% | 6% | 
4 | CCCCc1ccc(C(=C(F)Oc2cccc(C(C)=NOCc3ccccc3C(=COC)C(=O)OC)c2)C(F)(F)F)cc1 [Compound 156] | 20% |  | 91% | 92% |  | 95% | 93% | 36% |  |  | 33% | 0% | 
5 | COC=C(C(=O)OC)c1ccccc1CON=C(C)c1cccc(OC(F)=C(c2cccc(OC)c2)C(F)(F)F)c1 [Compound 157] | 60% | 97% | 99% | 100% | 98% | 100% | 100% | 68% | 33% | 76% | 93% | 6% | 
6 | COC=C(C(=O)OC)c1ccccc1CON=C(C)c1cccc(OC(F)=C(c2ccc(OC)cc2)C(F)(F)F)c1 [Compound 158] | 70% | 98% | 100% | 100% | 91% | 98% | 100% | 44% |  |  | 41% | 0% | 
7 | COC=C(C(=O)OC)c1ccccc1CON=C(C)c1cccc(OC(F)=C(c2cccc(F)c2)C(F)(F)F)c1 [Compound 159] | 65% | 99% | 100% | 100% | 94% | 100% | 100% | 52% | 25% | 91% | 96% | 20% | 
8 | COC=C(C(=O)OC)c1ccccc1CON=C(C)c1cccc(OC(F)=C(c2ccc(F)cc2)C(F)(F)F)c1 [Compound 160] | 70% |  | 100% | 100% |  | 100% | 100% | 36% |  | 100% | 100% | 92% | Fungicidal Activities BPM (C.V.) ([2]; 2 ppm): 99%; Fungicidal Activities WLR (C.V.) ([3]; 2 ppm): 99%; Fungicidal Activities RCV (C.V.) ([5]; 2 ppm): 86%
9 | COC=C(C(=O)OC)c1ccccc1CON=C(C)c1cccc(OC(F)=C(c2ccc(Cl)cc2)C(F)(F)F)c1 [Compound 163] |  |  |  |  |  |  |  |  |  |  |  |  | Fungicidal Activities RSB (C.V.) ([1]; 2 ppm): 40%; Fungicidal Activities RSB (C.V.) ([1]; 10 ppm): 40%; Fungicidal Activities RSB (C.V.) ([1]; 50 ppm): 92%; Fungicidal Activities BPM (C.V.) ([2]; 2 ppm): 94%; Fungicidal Activities BPM (C.V.) ([2]; 10 ppm): 100%; Fungicidal Activities BPM (C.V.) ([2]; 50 ppm): 100%; Fungicidal Activities WLR (C.V.) ([3]; 2 ppm): 86%; Fungicidal Activities WLR (C.V.) ([3]; 10 ppm): 98%; Fungicidal Activities WLR (C.V.) ([3]; 50 ppm): 100%; Fungicidal Activities CGM (C.V.) ([4]; 50 ppm): 51%; Fungicidal Activities RCV (C.V.) ([5]; 2 ppm): 58%; Fungicidal Activities RCV (C.V.) ([5]; 10 ppm): 86%; Fungicidal Activities RCV (C.V.) ([5]; 50 ppm): 90%; Fungicidal Activities TLB (C.V.) ([6]; 50 ppm): 12%
